From patent US8193349B2, “4-benzylamino-1-carboxylacyl-piperidine derivatives as CETP inhibitors” (Novartis AG, priority 2007, dated 2012)

Each compound was assayed against T1, CETP (Homo sapiens, UniProt P11597) (assay: In vitro CETP activity assay in human plasma). Conditions: CETP inhibition; Table 1 does not name the assay, it follows the human plasma assay; read-out: IC50 (nM), Inhibitory Activity of Compounds.
T1 construct: tissue New Drug Development Research Center, Inc; host or cells: human EDTA plasma from healthy men
T1 sequence (P11597 18-493): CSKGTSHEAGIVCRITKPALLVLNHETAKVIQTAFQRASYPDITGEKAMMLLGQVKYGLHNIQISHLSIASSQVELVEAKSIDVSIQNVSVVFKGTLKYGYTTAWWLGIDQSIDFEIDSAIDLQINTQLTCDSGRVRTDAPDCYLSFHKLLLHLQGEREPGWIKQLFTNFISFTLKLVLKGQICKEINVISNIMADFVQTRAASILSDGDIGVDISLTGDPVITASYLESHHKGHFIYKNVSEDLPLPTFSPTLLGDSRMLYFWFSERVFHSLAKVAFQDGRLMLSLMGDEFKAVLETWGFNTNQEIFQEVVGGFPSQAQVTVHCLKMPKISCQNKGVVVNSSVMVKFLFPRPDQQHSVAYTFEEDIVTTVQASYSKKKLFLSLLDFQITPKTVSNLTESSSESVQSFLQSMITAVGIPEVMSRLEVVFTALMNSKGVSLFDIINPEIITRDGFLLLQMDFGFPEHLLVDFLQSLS
Assay type: biochemical
Description: The cDNA of human pro-apoAI (NCBI accession number: NM_000039) is cloned from human liver Quick-Clone™ cDNA (Clontech, CA) and inserted to a pET28a vector (Novagen, Germany) for bacterial expression. Expressed protein as a fusion protein with 6×His-tag at N-terminus in BL-21 Gold (DE3) (Strategene, CA) is purified using HiTrap Chelating (GE Healthcare, CT).
Pro-apoAI containing microemulsion as a donor particle is prepared following previous reports (J. Biol. Chem., 280:14918-22). Glyceryl trioleate (62.5 ng, Sigma, Mo.), 3-sn-phosphatidylcholine (583 ng, Wako Pure Chemical Industries, Japan), and cholesteryl BODIPY® FL C12 (250 ng, Invitrogen, CA) are dissolved in 1 mL of chloroform. The solution is evaporated, then residual solvent is removed in vacuum for more than 1 hr. The dried lipid mixture is dissolved in 500 μL of the assay buffer (50 mM Tris-HCl (pH7.4) containing 150 mM NaCl and 2 mM EDTA) and sonicated at 50° C. with a microtip (MICROSON™ ULTRASONIC CELL DISRUPTOR, Misonix, Farmingdale, N.Y.) at output power 006 for 2 min. After sonication, the solution is cooled to 40° C., added to 100 μg of human pro-apoAI, and sonicated at output power 004 for 5 min at 40° C. The solution, BODIPY-CE microemulsion as a donor molecule is stored at 4° C. after filtration through a 0.45 μm PVDF filter.
Human EDTA plasma samples from healthy men are purchased from New Drug Development Research Center, Inc. Donor solution is prepared by a dilution of donor microemulsion with assay buffer. Human plasma (50 μL), assay buffer (35 μL) and test compound dissolved in dimethylsulfoxide (1 μL) are added to each well of 96 well half area black flat bottom plate. The reaction is started by the addition of donor solution (14 μL) into each well. Fluorescence intensities are measured every 30 min at 37° C. with excitation wave length of 485 nm and emission wavelength of 535 nm. The CETP activity (FI/min) is defined as the changes of fluorescence intensity from 30 to 90 min.

Row | SMILES | IC50 [nM]
1 | CC[C@@H]1C[C@H](N(Cc2cc(C(F)(F)F)cc(C(F)(F)F)c2)c2ncc(-c3cnn(C)c3)cn2)C[C@H](CC)N1C(=O)[C@H]1CC[C@H](CC(=O)O)CC1 [Example 1-2] | 142
2 | CC[C@@H]1C[C@H](N(Cc2cc(C(F)(F)F)cc(C(F)(F)F)c2)c2ncc(-c3cnn(C)c3)cn2)C[C@H](CC)N1C(=O)OCCCCC(=O)O [Example 1-5] | 135
3 | CC[C@@H]1C[C@H](N(Cc2cc(C(F)(F)F)cc(C(F)(F)F)c2)c2ncc(-c3cnn(C)c3)cn2)C[C@H](CC)N1C(=O)O[C@H]1CC[C@H](C(=O)O)CC1 [Example 1-8] | 69
4 | CC[C@@H]1C[C@H](N(Cc2cc(C(F)(F)F)cc(C(F)(F)F)c2)c2ncc(-c3cnn(C)c3)cn2)C[C@H](CC)N1C(=O)OCC(C)(C)CCC(=O)O [Example 1-11] | 63
5 | CC[C@@H]1C[C@H](N(Cc2cc(C(F)(F)F)cc(C(F)(F)F)c2)c2ncc(-c3cnn(C)c3)cn2)C[C@H](CC)N1C(=O)O[C@H]1C[C@H](C(=O)O)C1 [Example 1-17] | 86
6 | C[C@@H]1C[C@H](N(Cc2cc(C(F)(F)F)cc(C(F)(F)F)c2)c2ncc(-c3cnn(C)c3)cn2)C[C@H](C)N1C(=O)O[C@H]1CC[C@H](C(=O)O)CC1 [Example 1-19] | 98
7 | CC[C@@H]1C[C@H](N(Cc2cc(Cl)cc(Cl)c2)c2ncc(-c3cnn(C)c3)cn2)C[C@H](CC)N1C(=O)O[C@H]1CC[C@H](C(=O)O)CC1 [Example 1-20] | 91
8 | CC[C@@H]1C[C@H](N(Cc2cc(F)cc(C(F)(F)F)c2)c2ncc(-c3cnn(C)c3)cn2)C[C@H](CC)N1C(=O)O[C@H]1CC[C@H](C(=O)O)CC1 [Example 1-22] | 99
9 | CC[C@@H]1C[C@H](N(Cc2cc(C(F)(F)F)cc(C(F)(F)F)c2)c2ncc(-c3cnn(C)c3)cn2)C[C@H](CC)N1C(=O)O[C@H]1C[C@H](C(C)(C)C(=O)O)C1 [Example 1-27] | 152
10 | CC[C@@H]1C[C@H](N(Cc2cc(C(F)(F)F)cc(C(F)(F)F)c2)c2ncc(-c3cnn(C)c3)cn2)C[C@H](CC)N1C(=O)OCCCCC(N)=O [Example 4, cis-4-{[3,5-bis(trifluoromethyl)benzyl]-[5-(1-methyl-1H-pyrazol-4-yl)-pyrimidin-2-yl]-amino}-2,6-diethyl-piperidine-1-carboxylic acid 4-carbamoyl-butyl ester] | 68
